Measurements: ChEMBL document CHEMBL6071169, “Maydisens, Sesterterpenoids with Anti-MDR Activity from Bipolaris maydis” (J Nat Prod, 2024)
Activity calls are given as the source filed them. No cut-off for these calls is given here.

What was measured:
A549 = experiment: Cytotoxicity against human A549 cells at 20 uM incubated for 72 hrs by CCK-8 method; type: functional, cell-based
SW620/AD300 [1] = experiment: Cytotoxicity against human SW620/AD300 cells at 20 uM incubated for 72 hrs by CCK-8 method; type: functional, cell-based
MDA-MB-453 = experiment: Cytotoxicity against human MDA-MB-453 cells at 20 uM incubated for 72 hrs by CCK-8 method; type: functional, cell-based
SW620/AD300 [2] = experiment: Reversal of paclitaxel resistance in human SW620/AD300 cells assessed as reversal fold by measuring ratio of paclitaxel IC50 to paclitaxel IC50 in presence of test compound at 20 uM and measured after 72 hrs by CCK-8 method; type: functional
LNCaP C4-2B = experiment: Cytotoxicity against human LNCaP C4-2B cells at 20 uM incubated for 72 hrs by CCK-8 method; type: functional, cell-based
SW620/AD300 [3] = experiment: Reversal of paclitaxel resistance in human SW620/AD300 cells assessed as reduction in paclitaxel IC50 at 20 uM and measured after 72 hrs by CCK-8 method (reference value: 3.4 +/- 0.1 microM); type: functional, cell-based; settings: SW620/AD300, 72 h
SW620/AD300 [4] = experiment: Inhibition of colony formation in human SW620/AD300 cells assessed as decrease in colony count at 1 uM measured after 7 days by crystal violet staining based analysis; type: functional, cell-based; settings: time 7.0 day
SW620/AD300 [5] = experiment: Inhibition of colony formation in human SW620/AD300 cells assessed as decrease in colony count at 5 uM measured after 7 days in presence of paclitaxel by crystal violet staining based analysis; type: functional, cell-based; settings: time 7.0 day
SW620/AD300 [6] = experiment: Induction of cell cycle analysis in human SW620/AD300 cells assessed as increase in accumulation of cells at G2/M phase measured after 24 hrs by flow cytometry analysis; type: functional, cell-based; settings: dose 5-20 µM
SW620/AD300 [7] = experiment: Induction of cell cycle analysis in human SW620/AD300 cells assessed as increase in accumulation of cells at G0/G1 phase at 5 to 20 uM measured after 24 hrs by flow cytometry analysis; type: functional, cell-based; settings: dose 5-20 µM
SW620/AD300 [8] = experiment: Inhibition of colony formation in human SW620/AD300 cells assessed as decrease in colony count at 20 uM measured after 7 days in presence of paclitaxel by crystal violet staining based analysis; type: functional, cell-based; settings: time 7.0 day
SW620/AD300 [9] = experiment: Inhibition of colony formation in human SW620/AD300 cells assessed as decrease in colony count at 20 uM measured after 7 days by crystal violet staining based analysis; type: functional, cell-based; settings: time 7.0 day

Row | SMILES | Activity (A549) | Activity (SW620/AD300 [1]) | Activity (MDA-MB-453) | Ratio IC50 (SW620/AD300 [2]) | Activity (LNCaP C4-2B) | IC50 (SW620/AD300 [3]) [µM] | inhibition (SW620/AD300 [4]) | inhibition (SW620/AD300 [5]) | Activity (SW620/AD300 [6]) | Activity (SW620/AD300 [7]) | inhibition (SW620/AD300 [8]) | inhibition (SW620/AD300 [9])
1 | CC(C)=CC(=O)C[C@H](C)[C@H]1CC[C@]2(C)C[C@@H]3C(C)=CC(=O)[C@H]3/C(CO)=C\C[C@@H]12 | inactive | inactive | inactive | 17 | inactive | 0.2 |  |  |  |  |  | 
2 | C/C(=C\CC[C@](C)(O)[C@H]1CC[C@]2(C)C/C=C(\C)CC/C=C(\C)CC[C@@H]12)CO | inactive | inactive | inactive |  | inactive |  |  |  |  |  |  | 
3 | CC(C)=CCC[C@H](C)[C@H]1CC[C@]2(C)CC3=C(C(=O)C[C@H]3C)/C(CO)=C\C[C@@H]12 | inactive | inactive | inactive |  | inactive |  |  |  |  |  |  | 
4 | C/C1=C/C[C@H]2[C@@H]([C@@H](C)CC/C=C(\C)C(=O)O)CC[C@]2(C)C/C=C(\C)CC[C@@H]1O | inactive | inactive | inactive |  | inactive |  |  |  |  |  |  | 
5 | CC(C)=C/C=C/[C@H](C)[C@H]1CC[C@]2(C)C[C@@H]3C(C)=CC(=O)[C@H]3/C(CO)=C\C[C@@H]12 | inactive | inactive | inactive |  | inactive |  |  |  |  |  |  | 
6 | CC(C)=CCC[C@H](C)[C@H]1CC[C@]2(C)C[C@@]3(O)[C@H](C)CC(=O)[C@@H]3/C(CO)=C\C[C@@H]12 | inactive | inactive | inactive | 3 | inactive | 1 |  |  |  |  |  | 
7 | CC(C)=CCC[C@H](C)C1=CC[C@]2(C)C[C@@H]3C(C)=CC(=O)[C@H]3/C(C=O)=C\C=C\12 | inactive | inactive | inactive |  | inactive |  |  |  |  |  |  | 
8 | CC(C)=CCC[C@H](C)[C@H]1CC[C@]2(C)C[C@@H]3C(C)=CC(=O)[C@H]3[C@@H](CO)/C=C\[C@@H]12 | inactive | inactive | inactive |  | inactive |  |  |  |  |  |  | 
9 | CC(C)=CCC[C@H](C)[C@H]1CC[C@]2(C)C[C@@H]3C(CO)=CC(=O)[C@H]3/C(C)=C\C[C@@H]12 | inactive | inactive | inactive |  | inactive |  |  |  |  |  |  | 
10 | COC(OC)/C1=C/[C@H](O)[C@H]2[C@@H]([C@@H](C)CCC=C(C)C)CC[C@]2(C)C[C@@H]2C(C)=CC(=O)[C@@H]12 | inactive | inactive | inactive | 13 | inactive | 0.25 |  |  |  |  |  | 
11 | CC(=O)O[C@H]1C(=O)[C@@]2(C)[C@H]([C@H](OC(=O)c3ccccc3)[C@]3(O)C[C@H](OC(=O)[C@H](O)[C@@H](NC(=O)c4ccccc4)c4ccccc4)C(C)=C1C3(C)C)[C@]1(OC(C)=O)CO[C@@H]1C[C@@H]2O |  |  |  |  |  |  | inactive |  |  |  |  | 
12 | CC(C)=CCC[C@H](C)C1=CC[C@]2(C)C[C@@H]3C(C)=CC(=O)[C@H]3/C(CO)=C\C[C@@H]12 | inactive | inactive | inactive | 72 | inactive | 0.05 |  | Active | Dose-Dependent Effect | Active | Active | inactive
13 | C/C1=C/C[C@H]2[C@@H]([C@@H](C)CC/C=C(\C)CO)CC[C@]2(C)C/C=C(\C)CC[C@@H]1O | inactive | inactive | inactive |  | inactive |  |  |  |  |  |  | 
14 | C/C1=C\C[C@@]2(C)CC[C@H]([C@@H](C)CC/C=C(\C)C(=O)O)/C2=C/C[C@@]2(C)O[C@@H]2CC1 | inactive | inactive | inactive |  | inactive |  |  |  |  |  |  | 
